According to patent US12185720B2, “Chitooligosaccharides and methods for use in enhancing plant growth” (NOVOZYMES BIOAG A/S, priority 2011, dated 2025):

Tested on: Tomato seeds of hybrid tomato var. Royal Mounty
Assay: In vitro tomato seedling root growth bioassay (agar medium)
Type: in vivo
Conditions: day 7; control water
Method: Tomato seeds of hybrid tomato var. Royal Mounty were surface sterilized with 10% bleach solution for 10 minutes followed by 3 rinses with sterilized distilled water. Seeds were then dried in a laminar air flow hood for 3 hours. Seeds were then placed in petri-dishes on solidified agar medium containing various concentrations of different sources of the LCO illustrated in FIG. 1b (manufactured by Darmstadt, Germany and Grenoble, France) (also referred to in the examples as the “soybean LCO”) and the inventive CO illustrated in FIG. 2a (also referred to in the examples as the “pea CO” or “CO-V”). Seedling roots were measured by a hand ruler and root fresh weights were taken in a micro balance at day 7. Growth study was done in a growth chamber at 22° C.

## LCO-V(C18:1, MeFuc) [Soybean LCO, reference compound]
  root fresh weight, compared to control seedlings: significantly better than control seedlings
  root length, compared to control seedlings: significantly better than control seedlings
